The values that follow come from patent publication US4189484A, “Antihypertensive quinazoline derivatives” (priority 1977, dated 1980).

One data set relates to ICR strain male mice. The data set is described as follows: in vivo. In kind it is in vivo. As to conditions: 8 animals per group, 1 week. Here is the method:
ICR strain male mice, weighing 30-35 g., were deprived of food for 6 hours (water ad libitum) and then used in the experiment. Each group consisted of 8 animals. The test compound was suspended in a 1% tragacanth gum solution so as to be a volume of 40 ml./kg. and orally given. After administration, numbers of deceased animals, changes in body weight and other general states were observed or determined over 1 week.
Survived mice were autopsyed.

The subject of data set [1] is spontaneously hypertensive rats (SHR). The data set is described as follows: Antihypertensive effect, oral administration to spontaneously hypertensive rats (mean blood pressure and heart rate). In kind it is in vivo, rat. As to conditions: for Changes in blood pressure (BP) after oral administration / Changes in heart rate (HR) after oral administration: Table 2, male SHR, n=5, p.o.; for Changes in average blood pressures after administration: Table 3; for Change in blood pressure after 3 hrs. from administration: Table 1. Here is the method: Antihypertensive effect was determined by oral administration of the test compound to spontaneously hypertensive rats (hereinafter referred to as SHR).
These SHR were anesthetized with ether and chronically embedded with a cannula for determination of blood pressure so that one end of the said cannula may be placed in abdominal aorta and the other end thereof may be projected out of dorsal neck. When rats regained their body weight before operation in more than 1 week from operation, the test compound was given. Determination was made by measuring a mean blood pressure and a heart rate under unanesthetized and unrestrained conditions with the cannula connected to an electronic recording system. The test compound was suspended in a 1% tragacanth gum solution to make up a concentration so as to be a volume of 5 ml./kg. and then orally given.

The subject of a further data set is Adrenergic α-receptor. The data set is described as follows: Adrenergic α-receptor blocking effect (inhibition of hypertensive action of i.v. adrenalin hydrochloride). In kind it is in vivo, Wistar strain male rats. As to conditions: relative to prazosin. As to the method:
Wistar strain male rats, weighing 250-300 g., were used in this experiment. The rat was anesthetized with pentobarbital sodium and fitted in the right femoral artery with a cannula for determination of blood pressure and in the left femoral vein with another cannula for intravenous injection, the former cannula being connected to an electronic recording system to measure a blood pressure.
Adrenergic α-receptor blocking effect was determined upon whether a hypertensive action with intravenous injection of adrenalin hydrochloride at 0.3 or 1 μg./kg. may be reserved by pretreatment with the test compound.

`COc1cc2nc(N3CCN(C(=O)c4ccco4)CC3)nc(N)c2cc1OC` [Prazosin, reference compound]: the “No. of deceased animal” value in the data set with ICR strain male mice (p.o., 1,250 mg./kg.) worked out at 0; with ICR strain male mice (p.o., 2,500 mg./kg.), 0; in the data set with ICR strain male mice (p.o., 5,000 mg./kg.), 0. Further, the “time of maximum antihypertensive effect from oral administration” value in data set [1] (SHR, p.o.) worked out at 1 h. Besides, in data set [1] (SHR, p.o., in words), the “antihypertensive effect, compound compared with prazosin” value is given as “approximately equal antihypertensive effect to that of the present quinazoline compound after 3 hours”. The “Changes in blood pressure (BP) after oral administration” value is -34±5.6 mm.Hg in data set [1] (0.3 mg./kg., 1 hr.); -25±3.5 mm.Hg in data set [1] (0.3 mg./kg., 3 hrs.); -27±4.4 mm.Hg in data set [1] (0.3 mg./kg., 6 hrs.); -1±4.3 mm.Hg in data set [1] (0.3 mg./kg., 24 hrs.); -46±2.9 mm.Hg in data set [1] (1 mg./kg., 1 hr.); -31±2.9 mm.Hg in data set [1] (1 mg./kg., 6 hrs.). The “Changes in blood pressure (BP) after oral administration” value in data set [1] (1 mg./kg., 24 hrs.) is listed as -6±1.9 mm.Hg; in data set [1] (3 mg./kg., 1 hr.), -50±6.5 mm.Hg; in data set [1] (3 mg./kg., 3 hrs.) it was -31±5.8 mm.Hg; in data set [1] (3 mg./kg., 6 hrs.), -34±6.2 mm.Hg; in data set [1] (3 mg./kg., 24 hrs.) it was -3± 5.8 mm.Hg. Besides, the “Changes in heart rate (HR) after oral administration” value in data set [1] (0.3 mg./kg., 1 hr.) was determined as 6.3±3.3 no/min; in data set [1] (0.3 mg./kg., 3 hrs.) it was 5.3±4.6 no/min; in data set [1] (0.3 mg./kg., 6 hrs.), 3.2±3.0 no/min; in data set [1] (0.3 mg./kg., 24 hrs.), 4.3±4.9 no/min; in data set [1] (1 mg./kg., 1 hr.), 7.0±4.4 no/min; in data set [1] (1 mg./kg., 3 hrs.), 1.5±2.8 no/min. The “Changes in heart rate (HR) after oral administration” value was -9.8±6.1 no/min in data set [1] (1 mg./kg., 6 hrs.); -3.9±2.8 no/min in data set [1] (1 mg./kg., 24 hrs.); 12.7±7.8 no/min in data set [1] (3 mg./kg., 1 hr.); 17.8±7.7 no/min in data set [1] (3 mg./kg., 3 hrs.); 9.4±8.3 no/min in data set [1] (3 mg./kg., 6 hrs.); 26.8±8.3 no/min in data set [1] (3 mg./kg., 24 hrs.). Further, the “Changes in average blood pressures after administration” value (“Changes in average blood pressures” for short) in data set [1] (SHR, p.o., 1 mg./kg., 1 hr.) was -46 mmHg; in data set [1] (SHR, p.o., 1 mg./kg., 3 hrs.), -37 mmHg; in data set [1] (SHR, p.o., 1 mg./kg., 6 hrs.) it was -31 mmHg; in data set [1] (SHR, p.o., 1 mg./kg., 24 hrs.), -6 mmHg; in data set [1] (SHR, p.o., 3 mg./kg., 1 hr.), -50 mmHg; in data set [1] (SHR, p.o., 3 mg./kg., 3 hrs.) it was -31 mmHg. Further, the “Changes in average blood pressures” value is reported as -34 mmHg in data set [1] (SHR, p.o., 3 mg./kg., 6 hrs.) and -3 mmHg in data set [1] (SHR, p.o., 3 mg./kg., 24 hrs.).

For the molecule `COc1ccc(C=CC(=O)N2CCN(c3nc(N)c4cc(OC)c(OC)cc4n3)CC2)cc1` [Compound No. 8, 2-[4-(4-Methoxycinnamoyl)-piperazin-1-yl]-4-amino-6,7-dimethoxyquinazoline], in data set [1] (SHR, p.o., 10 mg./kg., 3 hrs.), the “Change in blood pressure after 3 hrs. from administration” value (shortened to “Change in blood pressure”) was -25 mmHg. Also, in the data set on Adrenergic α-receptor, the “α-receptor blocking action as compared with the action of prazosin” value is 1/100.

As for `CCOc1ccc(C=CC(=O)N2CCN(c3nc(N)c4cc(OC)c(OC)cc4n3)CC2)cc1` [Compound No. 10, 2-[4-(4-Ethoxycinnamoyl)-piperazine-1-yl]-4-amino-6,7-dimethoxyquinazoline], the “Change in blood pressure” value in data set [1] (SHR, p.o., 1 mg./kg., 3 hrs.) is reported as -19 mmHg; in data set [1] (SHR, p.o., 10 mg./kg., 3 hrs.), -53 mmHg. Also, the “α-receptor blocking action as compared with the action of prazosin” value with Adrenergic α-receptor is 1/100.

Regarding `COc1cc2nc(N3CCN(C(=O)C=Cc4ccc5c(c4)OCO5)CC3)nc(N)c2cc1OC` [Compound No. 16, 2-[4-(3,4-Methylenedioxycinnamoyl)-piperazin-1-yl]-4-amino-6,7-dimethoxyquinazoline], in data set [1] (SHR, p.o., 10 mg./kg., 3 hrs.), the “Change in blood pressure” value is reported as -13 mmHg. In addition, in the data set on Adrenergic α-receptor, the “α-receptor blocking action as compared with the action of prazosin” value is recorded as 1/100.

As for “2-{4-[3-(5-Chlorothiophen-2-yl)-acryloyl]-piperazin-1-yl}-4-amino-6,7-dimethoxyquinazoline [compound 42]”, the “Changes in average blood pressures” value is listed as -6 mmHg in data set [1] (SHR, p.o., 3 mg./kg., 1 hr.); -6 mmHg in data set [1] (SHR, p.o., 3 mg./kg., 3 hrs.); -7 mmHg in data set [1] (SHR, p.o., 3 mg./kg., 6 hrs.); -2 mmHg in data set [1] (SHR, p.o., 3 mg./kg., 24 hrs.).

As for `COc1cc2nc(N3CCN(C(=O)C=Cc4sccc4C)CC3)nc(N)c2cc1OC` [compound 37, 2-{4-[3-(3-Methylthiophen-2-yl)-acryloyl]-piperazin-1-yl}-4-amino-6,7-dimethoxyquinazoline], the “Changes in average blood pressures” value in data set [1] (SHR, p.o., 3 mg./kg., 1 hr.) is reported as -18 mmHg; in data set [1] (SHR, p.o., 3 mg./kg., 3 hrs.) it was -18 mmHg; in data set [1] (SHR, p.o., 3 mg./kg., 6 hrs.), -18 mmHg; in data set [1] (SHR, p.o., 3 mg./kg., 24 hrs.) it was 5 mmHg.

`COc1cc2nc(N3CCCN(C(=O)C=Cc4ccco4)CC3)nc(N)c2cc1OC` [compound 46, 2-{4-[3-(Furan-2-yl)-acryloyl]-homopiperazin-1-yl}-4-amino-6,7-dimethoxyquinazoline]: the “Changes in average blood pressures” value in data set [1] (SHR, p.o., 3 mg./kg., 1 hr.) is -20 mmHg; in data set [1] (SHR, p.o., 3 mg./kg., 3 hrs.) it was -10 mmHg; in data set [1] (SHR, p.o., 3 mg./kg., 6 hrs.) it was -12 mmHg; in data set [1] (SHR, p.o., 3 mg./kg., 24 hrs.), -8 mmHg.

Regarding `COc1cc2nc(N3CCN(C(=O)C=Cc4ccsc4)CC3)nc(N)c2cc1OC` [compound 36, 2-{4-[3-(Thiophen-3-yl)-acryloyl]-piperazin-1-yl}-4-amino-6,7-dimethoxyquinazoline], the “Changes in average blood pressures” value is given as -18 mmHg in data set [1] (SHR, p.o., 1 mg./kg., 1 hr.); -20 mmHg in data set [1] (SHR, p.o., 1 mg./kg., 3 hrs.); -27 mmHg in data set [1] (SHR, p.o., 1 mg./kg., 6 hrs.); 3 mmHg in data set [1] (SHR, p.o., 1 mg./kg., 24 hrs.); -47 mmHg in data set [1] (SHR, p.o., 3 mg./kg., 1 hr.); -30 mmHg in data set [1] (SHR, p.o., 3 mg./kg., 3 hrs.). In addition, the “Changes in average blood pressures” value in data set [1] (SHR, p.o., 3 mg./kg., 6 hrs.) is on record as -35 mmHg; in data set [1] (SHR, p.o., 3 mg./kg., 24 hrs.) it was 0 mmHg.

`COc1cc2nc(N3CCN(C(=O)C=Cc4ccoc4)CC3)nc(N)c2cc1OC` [compound 29, 2-{4-[3-(Furan-3-yl)-acryloyl]-piperazin-1-yl]-4-amino-6,7-dimethoxyquinazoline]: the “Changes in average blood pressures” value is listed as -25 mmHg in data set [1] (SHR, p.o., 1 mg./kg., 1 hr.); -28 mmHg in data set [1] (SHR, p.o., 1 mg./kg., 3 hrs.); -37 mmHg in data set [1] (SHR, p.o., 1 mg./kg., 6 hrs.); -17 mmHg in data set [1] (SHR, p.o., 1 mg./kg., 24 hrs.).

In the case of `COc1cc2nc(N3CCN(C(=O)C=Cc4cccc(C)c4)CC3)nc(N)c2cc1OC` [compound 3, 2-[4-(3-Methylcinnamoyl)-piperazin-1-yl]-4-amino-6,7-dimethoxyquinazoline], in data set [1] (SHR, p.o., 10 mg./kg., 3 hrs.), the “Change in blood pressure” value is -35 mmHg.

On to `C=CCOc1ccc(C=CC(=O)N2CCN(c3nc(N)c4cc(OC)c(OC)cc4n3)CC2)cc1` [compound 17, 2-[4-(4-Allyloxycinnamoyl)-piperazin-1-yl]-4-amino-6,7-dimethoxyquinazoline], for which the “Change in blood pressure” value in data set [1] (SHR, p.o., 10 mg./kg., 3 hrs.) was -18 mmHg.
